From patent US10954246B2, “Compound of EOC315 Mod.I crystal form and preparation method thereof” (Taizhou EOC Pharma Co., Ltd., priority 2017, dated 2021)
Counter-ions that a name gives are not always drawn.

Key:
[1] = tested on: advanced gastric cancers or gastroesophageal junction (GEJ) cancers; assay: Efficacy study of EOC315 with capecitabine and cisplatinum in patients; assay type: in vivo, human; settings: combination with capecitabine and cisplatinum
Source text: After at most 6 cycles of cisplatinum treatment, both or either of capecitabine and EOC315 was delivered to a subject in a dosage previously used according to the toxic reaction conditions, until the disease progressed.
Forty-eight subjects in total were enrolled for this study. Forty-five subjects (94%) had tumor metastasis and thirty-five subjects (73%) had more than two metastatic sites thereinto. The livers of 26 subjects (54%) were involved due to the tumors. The major sites involved for the 26 subjects (54%) were gastroesophageal junctions, the major sites involved for 22 subjects (46%) were stomach, and the majority of the subjects got an ECOG score of 1 (n=41, 85%).
Thirty-nine subjects completed at least one course of treatment and got therapeutic effect evaluation. The objective response rate (ORR) was 67%. One subject (2.6%) achieved the complete response. […] It was evaluated that the objective response generally occurred in the previous two cycles of treatment and lasted for a long time, which was related closely to the duration of treatment received by the subjects. The anti-tumor effect was not related to tumor tissue type, the primary site, whether or not liver is involved, or the study center. Median progression-free survival (PFS) was 4.5 months. […] The median time to progression for patients showing tumor remission was 6.4 months. Median overall survival (OS) was estimated to be 7.8 months, and the 1-year survival rate was 33%.

[2] = molecular target: VEGFR-2 (Vascular Endothelial Growth Factor Receptor-2) tyrosine kinase (Homo sapiens, UniProt P35968); settings: cited from earlier work
Chain of VEGFR-2 (Vascular Endothelial Growth Factor Receptor-2) tyrosine kinase (P35968 20-1356): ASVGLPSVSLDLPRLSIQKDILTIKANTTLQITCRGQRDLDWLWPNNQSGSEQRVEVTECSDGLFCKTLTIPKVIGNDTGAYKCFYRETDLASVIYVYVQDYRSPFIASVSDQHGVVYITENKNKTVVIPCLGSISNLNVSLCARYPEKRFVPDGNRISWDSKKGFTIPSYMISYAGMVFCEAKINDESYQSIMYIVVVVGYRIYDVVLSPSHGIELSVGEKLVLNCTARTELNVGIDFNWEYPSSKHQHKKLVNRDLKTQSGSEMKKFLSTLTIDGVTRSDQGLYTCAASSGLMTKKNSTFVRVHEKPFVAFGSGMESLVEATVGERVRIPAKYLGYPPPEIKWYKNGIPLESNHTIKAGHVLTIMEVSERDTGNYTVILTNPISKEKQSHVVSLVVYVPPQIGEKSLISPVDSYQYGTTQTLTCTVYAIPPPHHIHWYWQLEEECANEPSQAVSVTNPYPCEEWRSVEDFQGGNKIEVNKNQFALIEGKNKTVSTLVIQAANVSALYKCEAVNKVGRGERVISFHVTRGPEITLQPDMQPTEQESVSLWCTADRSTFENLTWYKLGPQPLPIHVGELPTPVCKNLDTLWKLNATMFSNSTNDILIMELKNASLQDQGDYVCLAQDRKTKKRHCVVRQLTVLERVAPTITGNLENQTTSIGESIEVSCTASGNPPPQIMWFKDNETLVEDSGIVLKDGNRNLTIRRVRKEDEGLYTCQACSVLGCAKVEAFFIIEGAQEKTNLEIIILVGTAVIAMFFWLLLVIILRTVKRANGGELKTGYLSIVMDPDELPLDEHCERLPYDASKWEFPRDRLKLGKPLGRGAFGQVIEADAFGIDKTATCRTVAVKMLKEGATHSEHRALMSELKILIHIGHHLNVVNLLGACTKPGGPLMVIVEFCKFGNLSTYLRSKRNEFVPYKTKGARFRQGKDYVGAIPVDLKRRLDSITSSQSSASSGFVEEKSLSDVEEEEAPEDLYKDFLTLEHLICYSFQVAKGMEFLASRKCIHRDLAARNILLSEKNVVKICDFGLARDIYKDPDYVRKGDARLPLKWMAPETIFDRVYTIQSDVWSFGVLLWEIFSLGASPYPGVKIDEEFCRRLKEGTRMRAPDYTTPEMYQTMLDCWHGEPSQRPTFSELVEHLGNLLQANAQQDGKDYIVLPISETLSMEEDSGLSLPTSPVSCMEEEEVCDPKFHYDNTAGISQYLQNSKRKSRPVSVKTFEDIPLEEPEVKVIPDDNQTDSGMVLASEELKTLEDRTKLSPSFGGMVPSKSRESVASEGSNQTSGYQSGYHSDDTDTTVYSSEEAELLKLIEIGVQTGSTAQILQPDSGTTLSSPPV

[3] = tested on: PDGFR (Platelet-Derived Growth Factor Receptor) tyrosine kinase; settings: cited from earlier work
[4] = Crystalline form after micronization (XRPD, DSC, HSM); assay type: physicochemical; settings: micronized, D90≤15 μm
Experimental: The pressure of the micronization equipment was set to be ≥0.65 MPa to obtain an EOC315 crystalline form micropowder, with a particle size D90≤15 μm. The X-ray powder diffraction, DSC, and HSM data of the micronized sample were measured using the aforementioned methods, and the results are shown in FIG. 2, FIG. 4, and FIG. 6.

| Structure (SMILES) | proportion of patients without tumor-progression within 6 months ([1]; Kaplan-Meier analysis) | 1-year survival rate [1] | median progression-free survival (PFS) [1] | objective response rate (ORR) ([1]; 39 evaluable subjects) | subjects with complete response ([1]; 39 evaluable subjects) | subjects with partial response ([1]; 39 evaluable subjects) | subjects with stable condition maintained more than 12 weeks ([1]; 39 evaluable subjects) | median overall survival (OS) ([1]; estimated) | median time to progression ([1]; patients showing tumor remission) | IC50 [2] | IC50 [3] | crystalline form after micronization [4] |
| --- | --- | --- | --- | --- | --- | --- | --- | --- | --- | --- | --- | --- |
| CNC(=O)c1cc(OCc2nnc(Nc3ccc(Cl)cc3)c3ccoc23)ccn1 [EOC315, 4-(4-chloroanilino)-7-(2-methylaminocarbonyl-4-oxymethyl) pyridylfuro[2,3-d]pyridazine mesylate] | 52% | 33% | 4.5 months | 67% | 2.6% | 64.1% | 28.2% | 7.8 months | 6.4 months | 6 nM | 15 nM | – |
| CNC(=O)c1cc(OCc2nnc(Nc3ccc(Cl)cc3)c3ccoc23)ccn1 [micronized EOC315] | – | – | – | – | – | – | – | – | – | – | – | remained unchanged |
